SMILES strings stand for the structures. Some results are limits rather than exact numbers.

Type in all cases: cell-based
One experiment has as its target T1, ABCB4 WT (Homo sapiens, UniProt P21439).
T1 construct: expressed in transfected cells
The experiment is described as follows: ABCB4 WT assay: HiBit protein expression. As to conditions: HEK-293 cells stably expressing HiBit-tagged ABCB4 WT; 24 h treatment; top concentration 30 μM; read-out: ABCB4 WT EC50, Emax. A digest of the protocol: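 HEK-293 cells stably expressing HiBit-tagged human ABCB4 WT, treated 24 h at 37 °C with 11-dose 3-fold dilutions, top final 30 μM in 0.3% DMSO. HiBit lytic reagent luminescence read after 1 h at 25 °C; Emax and EC50 derived.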
In general terms: The HiBiT peptide binds its large partner to form an active luciferase.

The target in the next experiment is T2, ABCD2 WT (Homo sapiens, UniProt Q9UBJ2).
T2 construct: expressed in transfected cells
T2 sequence (Q9UBJ2 1-740): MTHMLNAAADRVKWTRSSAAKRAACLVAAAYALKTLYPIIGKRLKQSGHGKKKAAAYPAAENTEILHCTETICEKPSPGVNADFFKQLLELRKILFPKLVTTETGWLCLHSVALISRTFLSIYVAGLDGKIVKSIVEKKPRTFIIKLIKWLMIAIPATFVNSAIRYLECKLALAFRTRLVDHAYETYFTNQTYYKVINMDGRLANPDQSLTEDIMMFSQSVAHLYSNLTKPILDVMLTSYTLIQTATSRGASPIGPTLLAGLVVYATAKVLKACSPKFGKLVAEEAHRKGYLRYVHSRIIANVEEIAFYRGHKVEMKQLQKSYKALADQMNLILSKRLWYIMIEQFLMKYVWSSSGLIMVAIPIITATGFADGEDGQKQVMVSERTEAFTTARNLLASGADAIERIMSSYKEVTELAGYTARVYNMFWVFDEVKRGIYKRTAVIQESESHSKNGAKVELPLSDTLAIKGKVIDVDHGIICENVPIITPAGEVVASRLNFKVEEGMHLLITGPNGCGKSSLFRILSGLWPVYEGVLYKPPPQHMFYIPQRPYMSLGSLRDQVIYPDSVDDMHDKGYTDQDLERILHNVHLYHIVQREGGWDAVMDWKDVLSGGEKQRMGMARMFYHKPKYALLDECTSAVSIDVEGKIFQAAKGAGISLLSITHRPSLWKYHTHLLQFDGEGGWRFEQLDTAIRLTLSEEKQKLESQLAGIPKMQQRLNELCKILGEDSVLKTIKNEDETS
The experiment is described as follows: D2 correction dose-response assay: ABCD2 WT HiBit protein expression. The conditions noted are these: HEK-293/ABCD2 WT cells, 24 hours treatment, HiBit luminescence; class combines EC50 and Mean MaxAct (fold); read-out: ABCD2 WT EC50, Emax. The method in brief:
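HEK-293 cells stably expressing HiBit-tagged human ABCD2 WT were treated with 11 doses (3-fold dilutions, top final 30 μM, 0.3% DMSO) for 24 h at 37 °C. Expression was measured by HiBit lytic luminescence after 1 h at 25 °C, giving EC50 and Emax.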

The target in the next experiment is T3, ABCA4 P1380L (Homo sapiens, UniProt P78363, P1380L).
T3 construct: expressed in transfected cells
The experiment is described as follows: A4 correction dose-response assay: ABCA4 P1380L HiBit protein expression. As to conditions: HEK-293 cells stably expressing HiBit-tagged ABCA4 P1380L; 24 h treatment; top concentration 30 μM; read-out: ABCA4 P1380L EC50, Emax. A digest of the protocol: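 Cells transfected with HiBit-tagged human ABCA4 P1380L cDNA were treated for 24 h at 37°C with an eleven-point dilution series (top final 30 μM, 0.3% DMSO).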

T3 sequence (P78363 whole entry P1380L): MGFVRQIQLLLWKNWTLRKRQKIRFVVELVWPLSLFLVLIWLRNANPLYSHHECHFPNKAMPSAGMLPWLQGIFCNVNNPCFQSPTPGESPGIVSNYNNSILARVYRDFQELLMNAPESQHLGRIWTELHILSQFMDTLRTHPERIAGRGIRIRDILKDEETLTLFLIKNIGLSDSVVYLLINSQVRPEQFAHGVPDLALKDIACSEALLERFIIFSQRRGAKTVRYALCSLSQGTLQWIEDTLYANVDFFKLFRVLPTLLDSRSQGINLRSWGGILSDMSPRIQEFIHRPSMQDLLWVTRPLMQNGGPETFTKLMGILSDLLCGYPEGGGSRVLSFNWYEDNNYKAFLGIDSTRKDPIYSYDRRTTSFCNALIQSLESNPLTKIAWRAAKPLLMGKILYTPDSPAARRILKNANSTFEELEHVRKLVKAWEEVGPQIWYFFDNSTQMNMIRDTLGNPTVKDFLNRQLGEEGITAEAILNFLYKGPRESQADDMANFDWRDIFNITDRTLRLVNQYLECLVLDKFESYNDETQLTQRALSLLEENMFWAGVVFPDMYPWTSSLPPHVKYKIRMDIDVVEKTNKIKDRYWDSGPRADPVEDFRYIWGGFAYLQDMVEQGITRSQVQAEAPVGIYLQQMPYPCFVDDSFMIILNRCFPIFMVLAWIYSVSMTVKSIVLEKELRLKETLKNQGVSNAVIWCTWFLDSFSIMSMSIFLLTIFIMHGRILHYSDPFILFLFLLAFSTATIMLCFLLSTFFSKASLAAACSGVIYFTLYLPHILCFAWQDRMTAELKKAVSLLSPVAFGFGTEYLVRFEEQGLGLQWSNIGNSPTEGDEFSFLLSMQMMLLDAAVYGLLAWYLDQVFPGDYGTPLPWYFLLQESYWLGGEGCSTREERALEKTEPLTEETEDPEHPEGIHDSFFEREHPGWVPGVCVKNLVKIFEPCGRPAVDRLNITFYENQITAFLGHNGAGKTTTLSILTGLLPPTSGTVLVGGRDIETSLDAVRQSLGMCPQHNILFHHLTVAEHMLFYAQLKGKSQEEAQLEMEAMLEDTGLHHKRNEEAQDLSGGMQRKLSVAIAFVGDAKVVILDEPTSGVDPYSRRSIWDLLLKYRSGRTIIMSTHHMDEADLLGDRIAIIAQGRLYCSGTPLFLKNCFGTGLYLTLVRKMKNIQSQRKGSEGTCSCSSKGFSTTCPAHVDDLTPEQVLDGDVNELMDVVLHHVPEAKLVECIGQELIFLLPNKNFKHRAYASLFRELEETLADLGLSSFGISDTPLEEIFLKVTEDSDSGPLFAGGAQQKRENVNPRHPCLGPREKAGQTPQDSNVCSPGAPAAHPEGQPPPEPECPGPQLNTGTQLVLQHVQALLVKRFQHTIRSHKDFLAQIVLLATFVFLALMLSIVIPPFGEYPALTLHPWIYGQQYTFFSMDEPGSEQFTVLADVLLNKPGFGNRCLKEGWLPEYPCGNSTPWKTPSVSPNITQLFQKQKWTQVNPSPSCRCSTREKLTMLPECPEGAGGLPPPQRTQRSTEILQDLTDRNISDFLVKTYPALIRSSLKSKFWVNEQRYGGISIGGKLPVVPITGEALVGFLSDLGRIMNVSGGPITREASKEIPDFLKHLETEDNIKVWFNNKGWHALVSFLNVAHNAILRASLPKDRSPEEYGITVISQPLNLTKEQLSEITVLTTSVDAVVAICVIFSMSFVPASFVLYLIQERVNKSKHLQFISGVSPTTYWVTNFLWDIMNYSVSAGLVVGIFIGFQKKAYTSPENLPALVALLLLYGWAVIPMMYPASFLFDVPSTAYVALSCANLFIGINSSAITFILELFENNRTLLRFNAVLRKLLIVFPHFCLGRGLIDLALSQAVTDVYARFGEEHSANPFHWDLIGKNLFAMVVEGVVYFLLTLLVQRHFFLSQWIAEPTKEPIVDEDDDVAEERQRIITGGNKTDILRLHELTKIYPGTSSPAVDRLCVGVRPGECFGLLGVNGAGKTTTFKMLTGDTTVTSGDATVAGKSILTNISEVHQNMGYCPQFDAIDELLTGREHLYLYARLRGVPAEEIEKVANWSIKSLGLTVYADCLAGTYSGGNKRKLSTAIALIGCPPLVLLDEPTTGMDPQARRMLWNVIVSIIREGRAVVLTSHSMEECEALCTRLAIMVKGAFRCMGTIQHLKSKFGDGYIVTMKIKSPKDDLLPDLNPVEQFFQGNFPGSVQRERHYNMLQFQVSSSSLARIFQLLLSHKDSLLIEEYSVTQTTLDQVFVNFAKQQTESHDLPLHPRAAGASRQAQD
T1 sequence (P21439 whole entry): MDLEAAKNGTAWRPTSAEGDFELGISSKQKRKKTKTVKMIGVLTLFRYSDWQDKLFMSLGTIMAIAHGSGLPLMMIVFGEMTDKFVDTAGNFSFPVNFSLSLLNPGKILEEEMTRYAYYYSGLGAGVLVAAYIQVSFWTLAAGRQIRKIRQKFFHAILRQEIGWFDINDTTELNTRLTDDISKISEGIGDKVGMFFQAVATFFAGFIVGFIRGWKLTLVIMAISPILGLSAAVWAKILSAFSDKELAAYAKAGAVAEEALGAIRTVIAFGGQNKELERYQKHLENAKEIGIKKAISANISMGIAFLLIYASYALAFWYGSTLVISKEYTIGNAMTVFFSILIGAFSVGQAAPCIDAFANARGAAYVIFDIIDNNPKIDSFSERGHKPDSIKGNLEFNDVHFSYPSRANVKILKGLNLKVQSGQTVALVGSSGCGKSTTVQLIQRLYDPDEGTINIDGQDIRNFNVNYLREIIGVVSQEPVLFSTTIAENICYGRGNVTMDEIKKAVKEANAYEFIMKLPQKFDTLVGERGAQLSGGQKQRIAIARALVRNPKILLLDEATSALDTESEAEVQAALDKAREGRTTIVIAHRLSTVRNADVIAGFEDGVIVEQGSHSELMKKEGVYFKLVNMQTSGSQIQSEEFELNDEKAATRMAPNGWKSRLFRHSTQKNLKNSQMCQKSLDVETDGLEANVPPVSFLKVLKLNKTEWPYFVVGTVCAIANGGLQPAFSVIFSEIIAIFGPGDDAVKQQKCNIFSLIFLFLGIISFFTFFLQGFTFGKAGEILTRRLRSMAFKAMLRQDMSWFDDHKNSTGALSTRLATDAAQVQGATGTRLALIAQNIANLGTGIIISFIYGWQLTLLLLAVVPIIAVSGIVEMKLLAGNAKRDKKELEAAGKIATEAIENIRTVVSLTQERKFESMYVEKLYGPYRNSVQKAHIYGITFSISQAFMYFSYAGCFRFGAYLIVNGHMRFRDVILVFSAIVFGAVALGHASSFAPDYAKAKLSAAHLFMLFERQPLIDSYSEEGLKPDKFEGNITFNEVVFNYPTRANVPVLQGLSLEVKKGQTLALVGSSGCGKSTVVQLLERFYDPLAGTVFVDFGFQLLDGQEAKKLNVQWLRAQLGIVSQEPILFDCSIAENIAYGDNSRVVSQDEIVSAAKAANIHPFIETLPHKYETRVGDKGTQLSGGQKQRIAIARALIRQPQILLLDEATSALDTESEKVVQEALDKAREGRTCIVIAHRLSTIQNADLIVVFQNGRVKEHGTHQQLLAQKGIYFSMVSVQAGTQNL

The EC50 is the concentration that produces a half-maximal response. Regarding `Cc1cc(C)c(Oc2nc(-c3cncc(C4CC4)c3)ccc2NS(C)(=O)=O)c(C)n1` [Compound I-232], the values for the EC50 on ABCB4 WT, at ABCD2 WT and on ABCA4 P1380L were under 25 µM, under 1 µM and under 25 µM, respectively.

In the case of `Cc1cc(C(F)(F)F)nc(C)c1Oc1nc(-c2cncc(C#N)c2)ccc1NS(=O)(=O)C1CC1` [Compound I-218], the values for the EC50 on ABCB4 WT, at ABCD2 WT and on ABCA4 P1380L were under 1 µM, 10 to 25 µM and under 1 µM, respectively.

Consider `Cc1nc(C2CC2)c(C(F)F)cc1Oc1nc(-c2cncc(C#N)c2)ccc1NS(C)(=O)=O` [Compound I-179], for which the EC50 on ABCB4 WT was under 1 µM; at ABCD2 WT, under 1 µM; at ABCA4 P1380L, over 25 µM.

As to `Cc1cc(C(F)F)nc(C)c1Oc1nc(-c2cncc(C3COC3)c2)ccc1NS(C)(=O)=O` [Compound I-197], the EC50 was under 1 µM on ABCB4 WT, 1 to 10 µM at ABCD2 WT and 1 to 10 µM on ABCA4 P1380L.

In the case of `Cc1cc(C)c(Oc2nc(-n3cc(C)cn3)ccc2NS(C)(=O)=O)c(C)c1` [Compound I-11], the figures for the EC50 on ABCB4 WT, at ABCD2 WT and on ABCA4 P1380L were at least 25 µM, 1 to 10 µM and over 25 µM, respectively.

As to `Cc1cc(C)c(Oc2nc(-c3ccnc(C#N)c3)ccc2NS(=O)(=O)C2CC2)c(C)n1` [Compound I-211], the EC50 is under 1 µM on ABCB4 WT, under 1 µM at ABCD2 WT and 10 to 25 µM at ABCA4 P1380L.

Regarding `Cc1cc(C)c(Oc2nc(-c3cncc(N4CCC4)c3)ccc2NS(C)(=O)=O)c(C)n1` [Compound I-190], the EC50 at ABCB4 WT, on ABCD2 WT and at ABCA4 P1380L was under 1 µM in each case.

With `Cc1cc(C2CC2)nc(C)c1Oc1nc(-c2cncc(C#N)c2)ccc1NS(=O)(=O)C1COC1` [Compound I-235], the EC50 is under 25 µM on ABCB4 WT, under 1 µM on ABCD2 WT and under 25 µM on ABCA4 P1380L.

In the case of `Cc1nc(C)c(Oc2nc(-c3cncc(C#N)c3)ccc2NS(C)(=O)=O)c(C)n1` [Compound I-234], the figures for the EC50 at ABCB4 WT, on ABCD2 WT and on ABCA4 P1380L were 1 to 10 µM, under 1 µM and under 1 µM, respectively.

In the case of `Cc1cc(C)c(Oc2nc(N3CCN(C(=O)C4(C)CC4)CC3)ccc2NS(C)(=O)=O)c(C)c1` [Compound I-15], the EC50 is 1 to 10 µM on ABCB4 WT, over 25 µM on ABCD2 WT and 1 to 10 µM at ABCA4 P1380L.

In the case of `Cc1cc(C)c(Oc2nc(-c3cncc(S(C)(=N)=O)c3)ccc2NS(C)(=O)=O)c(C)n1` (stereo not drawn) [Compound I-116], the EC50 was at least 25 µM on ABCB4 WT, over 25 µM at ABCD2 WT and over 25 µM on ABCA4 P1380L.

With `Cc1nc(C)c(Oc2nc(-c3cncc(C(F)(F)F)c3)ccc2NS(C)(=O)=O)c(C)n1` [Compound I-192], the figures for the EC50 on ABCB4 WT, at ABCD2 WT and on ABCA4 P1380L were under 25 µM, over 25 µM and 1 to 10 µM, respectively.

`Cc1cc(N2CCC2)nc(C)c1Oc1nc(-c2cncc(C#N)c2)ccc1NS(C)(=O)=O` [Compound I-177]: the EC50 at ABCB4 WT is under 1 µM; at ABCD2 WT, over 25 µM; on ABCA4 P1380L, under 1 µM.

Consider `Cc1cc(C)c(Oc2nc(-c3cncc(C#N)c3)ccc2NS(=O)(=O)C2COC2)c(C)n1` [Compound I-228], for which the values for the EC50 at ABCB4 WT, at ABCD2 WT and at ABCA4 P1380L were under 25 µM, 1 to 10 µM and under 1 µM, respectively.

These data come from patent US20250228835A1, “PYRIDINYLOXYPYRIDINES AND RELATED COMPOUNDS AND THEIR USE IN TREATING MEDICAL CONDITIONS” (Rectify Pharmaceuticals, Inc., priority 2024, published 2025).
